Values joined by “and” are separate entries in the source; they are usually repeats but may differ in a detail not shown here. Identical values can stand only once.
Columns and labels:
[1] = test system: HepG2 cells; test: HepG2 72-h viability, CellTiter-Glo; format: cell-based; details: Homo sapiens, 72 h exposure
Procedure: The HepG2 (Human hepatocyte carcinoma) cell line was procured from ATCC (American Type Culture Collection, Manassas, USA; HB-8065) and viability assessed using CellTiter-Glo luminescent cell viability assay reagents (Promega). For the assay, 2,000 cells/well were plated in 384-well plates 24 h prior to the experiment and incubated at 37°C in a CO2 incubator. The medium was removed; and cells were treated with fresh medium containing either vehicle (0.5% DMSO) or serially diluted compounds or doxorubicin (1.3 nM to 25 μM) in a final volume of 50 μL/well and further incubated for 72 h at 37°C in a CO2 incubator. […] Following incubation, 25 μL of medium was discarded and 25 μl of CellTiter-Glo reagent was added to each well and the plate was kept on a plate shaker for 15 min at 25°C with shaking at 300 rpm. Luminescence signals were measured in a PHERAstar FSX reader (BMG LABTECH).

[2] = biological target: T1, NAE (NEDD8-activating enzyme) (Homo sapiens, UniProt Q8TBC4); test: NAE E1-E2 transthiolation HTRF assay; format: biochemical
T1 sequence (Q8TBC4 1-463): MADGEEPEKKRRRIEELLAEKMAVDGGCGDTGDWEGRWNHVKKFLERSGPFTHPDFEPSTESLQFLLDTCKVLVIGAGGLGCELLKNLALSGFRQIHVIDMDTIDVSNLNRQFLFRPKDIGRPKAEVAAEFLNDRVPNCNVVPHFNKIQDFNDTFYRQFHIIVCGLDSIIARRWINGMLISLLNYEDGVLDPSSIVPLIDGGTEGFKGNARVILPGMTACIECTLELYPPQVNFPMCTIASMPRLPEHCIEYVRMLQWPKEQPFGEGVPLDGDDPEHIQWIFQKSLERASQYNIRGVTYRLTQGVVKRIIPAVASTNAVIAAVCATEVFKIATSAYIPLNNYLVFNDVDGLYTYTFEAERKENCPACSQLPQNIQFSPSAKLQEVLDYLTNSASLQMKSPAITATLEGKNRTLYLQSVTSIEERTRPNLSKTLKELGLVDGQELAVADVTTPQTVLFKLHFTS
T1 sequence (Q13564 1-534 partner): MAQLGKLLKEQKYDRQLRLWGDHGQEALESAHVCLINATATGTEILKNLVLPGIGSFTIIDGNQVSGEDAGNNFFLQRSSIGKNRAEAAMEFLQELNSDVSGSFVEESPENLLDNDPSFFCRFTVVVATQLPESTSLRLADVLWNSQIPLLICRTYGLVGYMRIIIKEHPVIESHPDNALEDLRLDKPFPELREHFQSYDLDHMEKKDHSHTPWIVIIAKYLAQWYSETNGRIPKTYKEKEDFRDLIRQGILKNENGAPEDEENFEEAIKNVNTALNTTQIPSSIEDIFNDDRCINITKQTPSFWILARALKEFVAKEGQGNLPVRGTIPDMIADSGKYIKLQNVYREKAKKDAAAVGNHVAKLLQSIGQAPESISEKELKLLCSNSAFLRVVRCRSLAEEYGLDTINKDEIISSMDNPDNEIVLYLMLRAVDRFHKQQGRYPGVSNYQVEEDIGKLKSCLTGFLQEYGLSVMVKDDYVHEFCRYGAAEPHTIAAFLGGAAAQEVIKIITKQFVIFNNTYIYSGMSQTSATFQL
Description: An Homogeneous Time-Resolved Fluorescence (HTRF) enzyme assay was employed to evaluate compound activity against ATG7 as previously described. In this assay, a Flag-tagged ATG8 homolog (GABA type A receptor-associated protein; GABARAP) is activated by ATG7 and then transthiolated to a GST-tagged E2 (ATG3). The product of the enzyme reaction, Flag-GABARAP-ATG3-GST, is quantified by measuring FRET between Europium-Cryptate labelled monoclonal anti-Flag M2 (FLAG M2-Eu cryptate; Revvity, Cat# 61FG2KLB) and […] (Anti-GST IgG conjugated to SureLight-Allophycocyanin) (Revvity, Cat# AD0059G)). The activation and transthiolation of ubiquitin by UAE, activation and transthiolation of NEDD8 by NAE and activation and transthiolation of SUMO by SAE were all assayed in a similar fashion with appropriately tagged ubiquitin-like proteins and E2 conjugating enzymes as described.

[3] = biological target: T2, PfTyrRS (Plasmodium falciparum, UniProt Q8IAR7); test: Differential scanning fluorimetry (DSF) of PfTyrRS; format: binding; details: for ΔTm at 50 µM: 50 μM sulfamate, tyrosine, PftRNA^Tyr, 37°C 2 h, read-out: PfTyrRS binding (DSF) Delta Tm; for ΔTm at 50 µM / PfTyrRS Tm: ATP; for Kd: estimated from DSF with an irreversible thermal unfolding model, read-out: PfTyrRS binding (DSF) apparent KD; for PfTyrRS Tm: with sulfamate, tyrosine and tRNA, apo 49.9 ± 0.6
Procedure: The effect on ML471 and analogues on the thermal stability of TyrRS enzymes was assayed as previously described. […] SYPRO Orange (Sigma-Aldrich; 5,000X concentrate in DMSO) was added to the reaction mixture at a final concentration of 5X. 25 μL of the sample was added into each well of a 96-well qPCR plate (Applied Biosystems). The plate was sealed and analysed using StepOnePlus Real-Time PCR system (Applied Biosystems). The samples were heated from 20°C to 90°C with a 1% continuous gradient. The thermal unfolding curve was plotted as the first derivative curve of the raw fluorescence values. The melting temperature (Tm), defined as the peak of the first derivative curve, was used to assess the thermal stability of protein-ligand complexes.

[4] = biological target: T2, PfTyrRS; test: ATP consumption by PfTyrRS (Kinase Glo); format: biochemical; details: PfTyrRS 25 nM, ATP 10 μM, tyrosine 200 μM, cognate tRNA^Tyr 4.8 μM, 37°C 1 h; read-out: Inhibition of PfTyrRS (Kinase Glo) IC50
Procedure: Consumption of ATP was measured using a luciferase-based assay as per the manufacturer’s instructions (Kinase-Glo Luminescent Kinase Assay, Promega).

T2 sequence (Q8IAR7 entry or part of it): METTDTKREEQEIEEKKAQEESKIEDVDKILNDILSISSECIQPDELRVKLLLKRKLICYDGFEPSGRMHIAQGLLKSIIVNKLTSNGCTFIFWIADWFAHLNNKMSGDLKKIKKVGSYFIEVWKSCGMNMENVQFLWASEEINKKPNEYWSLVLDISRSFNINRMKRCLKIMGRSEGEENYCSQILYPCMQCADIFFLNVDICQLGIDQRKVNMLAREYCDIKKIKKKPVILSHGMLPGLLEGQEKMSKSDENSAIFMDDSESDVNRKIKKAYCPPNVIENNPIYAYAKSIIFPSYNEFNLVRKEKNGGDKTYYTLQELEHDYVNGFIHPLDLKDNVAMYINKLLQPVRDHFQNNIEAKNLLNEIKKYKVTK

CCOc1nn([C@@H]2O[C@H](COS(N)(=O)=O)[C@@H](O)[C@H]2O)c2ncnc(N)c12 [ML676]
IC50 [1]: 22.4 µM | IC50 [2]: 66.6 ± 1.1 µM | ΔTm at 50 µM [3]: 15.69 ± 0.01 °C | Kd [3]: 0.0006 µM | PfTyrRS Tm [3]: 65.5 ± 0.6 °C

Nc1ncnc2c1c(C(F)(F)F)nn2[C@@H]1O[C@H](COS(N)(=O)=O)[C@@H](O)[C@H]1O [ML107]
IC50 [1]: 2.52 µM | IC50 [2]: 75.3 ± 0.8 µM | IC50 [4]: 24 ± 5 µM | ΔTm at 50 µM [3]: 13.6 ± 0.6 °C | Kd [3]: 0.0014 µM | PfTyrRS Tm [3]: 63.5 ± 0.4 °C

CC(C)Oc1nn([C@@H]2O[C@H](COS(N)(=O)=O)[C@@H](O)[C@H]2O)c2ncnc(N)c12 [ML723]
IC50 [1]: > 50 µM | IC50 [2]: > 100 µM | IC50 [4]: 14 ± 5 µM | ΔTm at 50 µM [3]: 16.2 ± 0.1 °C | Kd [3]: 0.0005 µM | PfTyrRS Tm [3]: 66.1 ± 0.7 °C

CCc1nn([C@@H]2O[C@H](COS(N)(=O)=O)[C@@H](O)[C@H]2O)c2ncnc(N)c12 [ML681]
IC50 [1]: 7.53 µM | IC50 [2]: 35.3 ± 0.8 µM | IC50 [4]: 23 ± 8 µM | ΔTm at 50 µM [3]: 16.4 ± 0.1 °C | Kd [3]: 0.0004 µM | PfTyrRS Tm [3]: 66.3 ± 0.5 °C

Nc1ncnc2c1c(Oc1ccccc1)nn2[C@@H]1O[C@H](COS(N)(=O)=O)[C@@H](O)[C@H]1O [ML470]
IC50 [1]: > 50 µM | IC50 [2]: > 100 µM | IC50 [4]: 41 ± 23 µM | ΔTm at 50 µM [3]: 15.7 ± 0.3 °C | Kd [3]: 0.0006 µM | PfTyrRS Tm [3]: 65.5 ± 0.6 °C

Nc1ncnc2c1c(OC(F)F)nn2[C@@H]1O[C@H](COS(N)(=O)=O)[C@@H](O)[C@H]1O [ML901]
IC50 [1]: 4.65 µM | IC50 [2]: 28 ± 0.6 µM | IC50 [4]: 13.4 µM and 13 µM | ΔTm at 50 µM [3]: 15.2 ± 0.1 °C | Kd [3]: 0.0007 µM | PfTyrRS Tm [3]: 65.1 ± 0.5 °C

CC(C)c1nn([C@@H]2O[C@H](COS(N)(=O)=O)[C@@H](O)[C@H]2O)c2ncnc(N)c12 [ML471, ((2R,3S,4R,5R)-5-(4-amino-3-isopropyl-1H-pyrazolo[3,4-d]pyrimidin-1-yl)-3,4-dihydroxytetrahydrofuran-2-yl)methyl sulfamate]
IC50 [1]: > 50 µM | IC50 [2]: > 100 µM | activity against NAE (in words) [2]: no or very little activity | IC50 [4]: 1.4 ± 0.2 µM | ΔTm at 50 µM [3]: 18 ± 0.1 °C | Kd [3]: 0.0002 µM | PfTyrRS Tm [3]: 67.9 ± 0.4 °C

Reference: paper PMC11671014 (PLOS Pathogens, 2024)
